Laboratory results published in PubChem BioAssay AID248 (DTP/NCI, 2004).
Several values for one entry are separate records, joined by “and”; a condition that tells them apart may be missing. Equal entries are not always repeated. Inconclusive results and toxic doses are left out. Rule as the data show it: active = T/C of 150% or more; inactive = T/C below 125%.

Tested on: L1210 leukemia ip in BDF1 mice, survival T/C
Test: NCI In Vivo Anticancer Drug Screen. Data for tumor model L1210 Leukemia (intraperitoneal) in B6D2F1 (BDF1) mice
Details: endpoint: mean survival time, higher = longer survival
How it was run: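 Each compound was tested against a transplantable tumor grown in mice. The endpoint was survival, with treated animals benchmarked against vehicle controls as a simple ratio.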

[1] = dose: 100.0 mg/kg/injection, schedule: Q01DX001 (ip), vehicle: Klucel (hydroxypropylcellulose) (HPC)
[2] = dose: 100.0 mg/kg/injection, schedule: Q01DX009 (ip), vehicle: Klucel (hydroxypropylcellulose) (HPC)
[3] = dose: 200.0 mg/kg/injection, schedule: Q01DX001 (ip), vehicle: Klucel (hydroxypropylcellulose) (HPC)
[4] = dose: 200.0 mg/kg/injection, schedule: Q01DX009 (ip), vehicle: Klucel (hydroxypropylcellulose) (HPC)
[5] = dose: 50.0 mg/kg/injection, schedule: Q01DX009 (ip), vehicle: saline with Tween-80
[6] = dose: 100.0 mg/kg/injection, schedule: Q01DX009 (ip), vehicle: saline with Tween-80
[7] = dose: 200.0 mg/kg/injection, schedule: Q01DX009 (ip), vehicle: saline with Tween-80
[8] = dose: 100.0 mg/kg/injection, schedule: Q01DX001 (ip), vehicle: saline
[9] = dose: 200.0 mg/kg/injection, schedule: Q01DX001 (ip), vehicle: saline
[10] = dose: 400.0 mg/kg/injection, schedule: Q01DX001 (ip), vehicle: saline
[11] = dose: 100.0 mg/kg/injection, schedule: Q01DX001 (ip), vehicle: carboxymethylcellulose (CMC)
[12] = dose: 200.0 mg/kg/injection, schedule: Q01DX001 (ip), vehicle: carboxymethylcellulose (CMC)
[13] = dose: 100.0 mg/kg/injection, schedule: Q04DX003 (ip), vehicle: Klucel (hydroxypropylcellulose) (HPC)
[14] = dose: 200.0 mg/kg/injection, schedule: Q04DX003 (ip), vehicle: Klucel (hydroxypropylcellulose) (HPC)
[15] = dose: 400.0 mg/kg/injection, schedule: Q04DX003 (ip), vehicle: Klucel (hydroxypropylcellulose) (HPC)
[16] = dose: 400.0 mg/kg/injection, schedule: Q01DX001 (ip), vehicle: carboxymethylcellulose (CMC)

Measured: T/C

CCN(CC)C(=O)NC1CCCN1C (configuration not stated)
inactive: dose: 100.0 mg/kg/injection, schedule: Q01DX009 (ip), vehicle: saline 96 % of control | dose: 100.0 mg/kg/injection, schedule: Q04DX003 (ip), vehicle: saline 97 % of control | dose: 200.0 mg/kg/injection, schedule: Q01DX009 (ip), vehicle: saline 101 % of control | dose: 200.0 mg/kg/injection, schedule: Q04DX003 (ip), vehicle: saline 107 % of control | dose: 400.0 mg/kg/injection, schedule: Q01DX009 (ip), vehicle: saline 109 % of control | dose: 400.0 mg/kg/injection, schedule: Q04DX003 (ip), vehicle: saline 103 % of control

c1ccc(COc2ccnc(SCc3ccccc3)n2)cc1
inactive: [1] 90 % of control | [2] 95 % of control | [3] 95 % of control | [4] 93 % of control | dose: 400.0 mg/kg/injection, schedule: Q01DX001 (ip), vehicle: Klucel (hydroxypropylcellulose) (HPC) 100 % of control

C=CCOC(=N)c1ccccc1
inactive: [5] 93 % of control | [6] 105 % of control | [7] 91 % of control

O=C1C2=C(CCCC2)C(=O)c2ccccc21
inactive: dose: 50.0 mg/kg/injection, schedule: Q01DX001 (ip), vehicle: saline 93 % of control | [8] 100 % of control | [9] 96 % of control | [10] 102 % of control

CC(=O)Nc1cccc(S(=O)(=O)F)c1
inactive: [5] 100 % of control | [6] 105 % of control | [7] 88 % of control

Cc1ccc(OCC(=O)Nc2c(Cl)cc(Cl)cc2Cl)c(C)c1
inactive: dose: 100.0 mg/kg/injection, schedule: Q04DX002 (ip), vehicle: gum acacia 92 % of control | dose: 200.0 mg/kg/injection, schedule: Q04DX002 (ip), vehicle: gum acacia 89 % of control

O=C1NC(=O)C(=Cc2csc3ccccc23)C(=O)N1
inactive: [11] 94 % of control | [12] 96 % of control

O=C1NC(=O)C2C3C=CC(C3)C12 (configuration not stated)
inactive: dose: 50.0 mg/kg/injection, schedule: Q01DX001 (ip), vehicle: Klucel (hydroxypropylcellulose) (HPC) 101 % of control | [1] 99 % of control | [3] 101 % of control

CCCCC(=O)N/N=C/c1ccc([N+](=O)[O-])cc1
inactive: [8] 95 % of control | [9] 89 % of control | [10] 94 % of control

O=S(=O)(Nc1ccccc1)c1ccccc1
inactive: [13] 98 % of control | [14] 107 % of control | [15] 98 % of control

CCOP(=O)(Nc1cccc(Cl)c1)OCC
inactive: dose: 50.0 mg/kg/injection, schedule: Q01DX001 (ip), vehicle: carboxymethylcellulose (CMC) 94 % of control | [11] 94 % of control | [12] 105 % of control | [16] 103 % of control

O=S(=O)(O)OCc1cc(O)c(OS(=O)(=O)O)c(Br)c1Br
inactive: dose: 100.0 mg/kg/injection, schedule: Q01DX001 (ip), vehicle: saline with Tween-80 97 % of control | dose: 200.0 mg/kg/injection, schedule: Q01DX001 (ip), vehicle: saline with Tween-80 102 % of control | dose: 400.0 mg/kg/injection, schedule: Q01DX001 (ip), vehicle: saline with Tween-80 94 % of control

C[N+](C)(C)CC(O)COc1ccc(Cl)cc1Cl (configuration not stated)
inactive: dose: 25.0 mg/kg/injection, schedule: Q04DX002 (ip), vehicle: Klucel (hydroxypropylcellulose) (HPC) 97 % of control | dose: 50.0 mg/kg/injection, schedule: Q04DX002 (ip), vehicle: Klucel (hydroxypropylcellulose) (HPC) 101 % of control | dose: 100.0 mg/kg/injection, schedule: Q04DX002 (ip), vehicle: Klucel (hydroxypropylcellulose) (HPC) 94 % of control and 89 % of control

C[N+](C)(Cc1ccccc1)C1c2ccccc2-c2ccc(Cl)cc21 (configuration not stated)
inactive: dose: 6.25 mg/kg/injection, schedule: Q04DX002 (ip), vehicle: saline with Tween-80 91 % of control | dose: 12.5 mg/kg/injection, schedule: Q04DX002 (ip), vehicle: saline with Tween-80 94 % of control | dose: 25.0 mg/kg/injection, schedule: Q04DX002 (ip), vehicle: saline with Tween-80 88 % of control

CC(=O)OC1CCCCCCC1
inactive: [2] 97 % of control | [13] 95 % of control | [4] 100 % of control | [14] 92 % of control | dose: 400.0 mg/kg/injection, schedule: Q01DX009 (ip), vehicle: Klucel (hydroxypropylcellulose) (HPC) 94 % of control | [15] 92 % of control

CCC(O)C(CC(C)N(C)C)(c1ccccc1)c1ccccc1 (configuration not stated)
inactive: [8] 108 % of control

Nc1ncn(C2CC(OC(=O)c3ccc(Cl)cc3)C(COC(=O)c3ccc(Cl)cc3)O2)c(=O)n1 (configuration not stated)
inactive: dose: 100.0 mg/kg/injection, schedule: Q01DX005 (ip), vehicle: saline 110 % of control and 122 % of control | dose: 200.0 mg/kg/injection, schedule: Q01DX005 (ip), vehicle: saline 104 % of control

CC(C)(O)C(=NCc1ccccc1)c1ccccc1
inactive: dose: 75.0 mg/kg/injection, schedule: Q04DX003 (ip), vehicle: other 97 % of control | dose: 150.0 mg/kg/injection, schedule: Q04DX003 (ip), vehicle: other 92 % of control | dose: 300.0 mg/kg/injection, schedule: Q04DX003 (ip), vehicle: other 98 % of control

Clc1ccc(CNc2ccc(Cl)c(Cl)c2)cc1
inactive: dose: 200.0 mg/kg/injection, schedule: Q04DX002 (ip), vehicle: saline with Tween-80 92 % of control | dose: 400.0 mg/kg/injection, schedule: Q04DX002 (ip), vehicle: saline with Tween-80 89 % of control

O=C(O)c1ccccc1C(NC(=O)N1C(=O)C=CC1=O)NC(=O)N1C(=O)C=CC1=O
inactive: [11] 97 % of control | [12] 97 % of control | [16] 106 % of control

CC[CH2][Sn]([Br])([CH2]CC)[CH2]CC
inactive: dose: 1.56 mg/kg/injection, schedule: Q01DX009 (ip), vehicle: saline 95 % of control | dose: 3.12 mg/kg/injection, schedule: Q01DX009 (ip), vehicle: saline 102 % of control

CCOC(=O)/C=C(\COC)c1ccccc1
inactive: [8] 104 % of control | [9] 104 % of control | [10] 104 % of control

Cc1ccc(C(c2ccc(C)c(C)c2)C(O)C(O)C(O)CO)cc1C (configuration not stated)
inactive: [8] 94 % of control and 100 % of control | [9] 102 % of control and 96 % of control | [10] 97 % of control and 96 % of control
